Measured values: patent publication EP4523682A1, “PROCESS TO COMPLEX OLEANOLIC ACID WITH CYCLODEXTRINS AND PRODUCTS OBTAINED THEREOF” (FUNDACION UNIVERSITARIA SAN ANTONIO (UCAM), priority 2023, dated 2025)

What was measured:
[1] = test system: phospho-JNK1/2 (Thr 183/Tyr 185); assay: Western blot; type: cell-based, Human; conditions: 21/5.25 µM/mM OA/HP-β-CD; 10 µM OA/DMSO
Procedure: (§1) Mv1Lu or MDA-MB-231 cells are seeded and allowed to reach 60% confluence in 10 cm diameter plates. At this time, culture medium containing 10% FBS is replaced by an FBS-free medium, incubating the cells for a 24-hours period. Serum-deprived cells are treated with either OA, OA/HP-β-CD, DMSO, HP-β-CD or 10 ng/ml EGF. After time incubations, cells are harvested, washed twice with ice-cold PBS and lysed with 20 mM TRIS pH 7.5, 150 mM NaCl, 1 mM EDTA, 1.2 mM MgCl2, 0.5%, Nonidet p-40, 1mM DTT, 25 mM NaF and 25 mM β-glycerophosphate supplemented with phosphatase inhibitors (I and II) and protease inhibitors (all from Sigma-Aldrich, St Louis, MO, USA). Total protein amount of all extracts is measured and normalized by Bradford assay (Sigma-Aldrich, St Louis, MO, USA). The extracts are analyzed by SDS-PAGE followed by Western blot (WB) using the indicated antibodies (see Antibodies section). […] For protein quantification, Western pictures in 8-bit format are processed in imaged software. Subsequently, in all Western blot pictures, a lane is stablished for each of the samples. In each lane, the band is selected according to the specific size (kDa) of the protein of interest. For each total protein and their phosphorylated version, each band's intensity peak is plotted, and next, the area under the plot is measured by using "Wand (tracing) tool" of imaged to obtain the intensity value. In order to normalize, obtained intensity values are referred to obtained intensity values of either the unphosphorylated form of the protein (total) or a loading control protein such as β-actin, only if the unphosphorylated form is undetectable (non-available antibody for detecting the unphosphorylated form). […]

[2] = test system: phospho-c-Jun (Ser 63); assay: Western blot; type: cell-based, Human; conditions: 21/5.25 µM/mM OA/HP-β-CD; 10 µM OA/DMSO
Procedure: as §1

[3] = test system: c-Jun; assay: Western blot; type: cell-based, Human; conditions: 21/5.25 µM/mM OA/HP-β-CD; 10 µM OA/DMSO
Procedure: as §1

[4] = test system: c-Jun active phosphorylated form (p-c-Jun); assay: Cell-front migration assay, p-c-Jun immunostaining; type: cell-based, Mink; conditions: 12.5/3.12 µM/mM OA/HP-β-CD, 5 µM OA/DMSO
Procedure: Mv1Lu cells are grown until they reach confluence on round glass-coverslips in 10% FBS-EMEM medium. At this time, cells are washed and a 24h serum-starvation period is set by replacing the medium with FBS-free EMEM. After this, the epithelium is scratched using a razor blade, which produces an artificial wound with enough space to allow cells to migrate. […] After the selected times of incubation, glass-coverslips are fixed with 4% formaldehyde (Applichem GmbH, Darmstadt, Germany) in PBS (Biowest, Nuaillé, France) for 10 minutes and washed twice with PBS. After this, cells are permeabilized with 0,3% Triton X-100 (Sigma-Aldrich, St Louis, MO, USA) in PBS for 10 minutes. […] In order to quantify phospho-c-Jun levels in immunofluorescence pictures, images are analyzed and quantified by Image J software. […] Within each sector, the quantified signal of each nucleus is used as a replicate to obtain p-c-Jun intensity data in each of the conditions performed. For a better understanding, the relation of number of p-c-Jun positive nuclei between total nuclei number is calculated. For this purpose, a basal p-c-Jun intensity mean is calculated considering the control condition of the assays, set as a threshold. […]
Data of intensity values obtained from p-c-Jun nuclei quantifications in immunofluorescence pictures are analyzed by using two statistic tests: Two-way ANOVA test and One-way ANOVA test.

[5] = test system: focal adhesions (FAs) revealed by Paxillin; assay: Cell-front migration assay, focal adhesions by paxillin immunostaining; type: cell-based, Mink; conditions: 6 and 12 hours; 12.5/3.12 µM/mM OA/HP-β-CD; 5 µM OA/DMSO; versus basal and vehicle control
Procedure: Mv1Lu cells are grown until they reach confluence on round glass-coverslips in 10% FBS-EMEM medium. At this time, cells are washed and a 24h serum-starvation period is set by replacing the medium with FBS-free EMEM. After this, the epithelium is scratched using a razor blade, which produces an artificial wound with enough space to allow cells to migrate. […] After the selected times of incubation, glass-coverslips are fixed with 4% formaldehyde (Applichem GmbH, Darmstadt, Germany) in PBS (Biowest, Nuaillé, France) for 10 minutes and washed twice with PBS. After this, cells are permeabilized with 0,3% Triton X-100 (Sigma-Aldrich, St Louis, MO, USA) in PBS for 10 minutes. For immunostaining, a blocking is performed for 30 minutes at room temperature in PBS solution with 10% FBS, 5% skim milk (Beckton Dickinson, Franklin Lakes, NJ, USA), 0,3% bovine serum albumin (BSA, Sigma-Aldrich, St Louis, MO, USA) and 0,1% Triton X-100. Then, cells are incubated 1 hour at room temperature with anti-paxillin or anti-phospho-c-Jun antibodies, diluted in blocking solution without skim milk. […] Briefly, focal adhesions are quantified from paxillin stained acquired pictures. […] Then, the number of FAs are calculated in each filopodia by using the previously mentioned macros. […] In parallel, the size of each FA is measured using the macros mentioned above. Finally, FA average size is calculated for each treatment.

Substance: Oleanolic acid [OA/DMSO]
- p-JNK1/2 [1]: stimulated this kinase at time 1 hours
- p-c-Jun [2]: stronger stimulation of p-c-Jun at time 1 hour
- total c-Jun levels [3]: stimulated c-Jun overexpression at the early time of 1 h
- p-c-Jun in cells at the edge of the wound (immunostaining) ([4]; 6 and 12 hours): promote the up-regulation of this active form of c-Jun
- p-c-Jun fluorescence in the nuclei (quantified) [4]: promoted the expression and activation of this factor
- number of adhesion foci (FAs density) [5]: greater number of adhesion foci
- size of adhesion foci (FA average size) [5]: small foci
